From patent publication US10221138B2, “Biaryl derivatives as GPR120 agonists” (LG CHEM, LTD., priority 2013, dated 2019) come the findings set out here.

Molecules are shown by their SMILES.

In the first test the target is T1, hGPR120 (Homo sapiens, UniProt Q5NUL3).
T1 construct: expressed in transfected cells; host or cells: CHO-K1
T1 sequence (Q5NUL3 1-361): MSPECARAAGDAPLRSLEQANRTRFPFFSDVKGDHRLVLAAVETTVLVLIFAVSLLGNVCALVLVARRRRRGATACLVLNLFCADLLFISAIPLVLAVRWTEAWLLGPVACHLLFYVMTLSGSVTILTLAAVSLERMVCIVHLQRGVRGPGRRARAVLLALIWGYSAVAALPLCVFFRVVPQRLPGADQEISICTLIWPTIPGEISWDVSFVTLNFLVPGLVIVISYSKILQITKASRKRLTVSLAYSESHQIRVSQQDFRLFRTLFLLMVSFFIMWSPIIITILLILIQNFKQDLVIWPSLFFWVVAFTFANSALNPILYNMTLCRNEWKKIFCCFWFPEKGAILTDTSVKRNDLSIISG
In words: Measurement of activity of GPR120 agonist (cell-based calcium fluorescence assay).
Conditions: not given
The protocol:
CHO-K1 cells expressing Ga16 and hGPR120 were dispensed into each well of a 96-well plate (3×10^4 cells/100 μl/well) and then incubated in 5% CO2, 37° C. incubator for 18 hours. Each well was treated with 100 μl of Calcium 5 dye (Molecular Devices) solution including 2% DMSO and then incubated in 5% CO2, 37° C. incubator for 1 hour. Serially diluted GPR120 agonists were prepared to a final concentration of 0.5% DMSO in a 96-well plate.
Fluorescence increased by the serially diluted GPR120 agonists is calculated as a relative percent (%) value based on the fluorescence represented by the treatment of 1% DMSO only. […] The calculation of measurement was carried out by using statistical software (Prizm).
Activity is denoted based on the following criteria: […]
One may read the EC50 as the concentration needed to bring the measured effect to its halfway point. On to `CC(C)Nc1ccccc1-c1cc(F)c(OCCCC(=O)O)c(F)c1` [Example 83, 4-[2,6-difluoro-4-[2-(isopropylamino)phenyl]phenoxy]butanoic Acid], for which the EC50 fell in the range of 200 to 2000 nM.

The test is the same for the next values; noted with them: CHO-K1 cells expressing Ga16 and hGPR120, Calcium 5 dye fluorescence; activity class; read-out: EC50.
As for `O=C(O)CCCOc1c(F)cc(-c2cccnc2NC2CCCC2)cc1F` [Example 73, 4-[4-[2-(cyclopentylamino)-3-pyridyl]-2,6-difluoro-phenoxy]butanoic acid], the EC50 is 200 to 2000 nM. On the same count and under the same terms, to `O=C(O)CCCOc1c(F)cc(-c2cccnc2NCC2CC2)cc1F` [Example 74, 4-[4-[2-(cyclopropylmethylamino)-3-pyridyl]-2,6-difluoro-phenoxy]butanoic acid] belongs 200 to 2000 nM. With `O=C(O)CCCOc1c(F)cc(-c2cccc(NCC3CC3)n2)cc1F` [Example 75, 4-[4-[6-(cyclopropylmethylamino)-2-pyridyl]-2,6-difluoro-phenoxy]butanoic acid], the EC50 is 200 to 2000 nM. Take `CC(C)Nc1ncccc1-c1cc(F)c(OCCCC(=O)O)c(F)c1` [Example 76, 4-[2,6-difluoro-4-[2-(isopropylamino)-3-pyridyl]phenoxy]butanoic acid]: the EC50 lay within 200 to 2000 nM.

Regarding `O=C(O)CCCOc1c(F)cc(-c2cccnc2NC2CC2)cc1F` [Example 77, 4-[4-[2-(cyclopropylamino)-3-pyridyl]-2,6-difluoro-phenoxy]butanoic acid], the EC50 was greater than 20000 nM. Still for that read-out and setting: the value for `CC(C)Nc1cccc(-c2cc(F)c(OCCCC(=O)O)c(F)c2)n1` [Example 78, 4-[2,6-difluoro-4-[6-(isopropylamino)-2-pyridyl]phenoxy]butanoic acid] was 200 to 2000 nM; that for `O=C(O)CCCOc1c(F)cc(-c2ccccc2NC2CCCC2)cc1F` [Example 79, 4-[4-[2-(cyclopentylamino)phenyl]-2,6-difluoro-phenoxy]butanoic acid] was less than 200 nM.

On to `O=C(O)CCCOc1c(F)cc(-c2cccc(NC3CCCC3)c2)cc1F` [Example 80, 4-[4-[3-(cyclopentylamino)phenyl]-2,6-difluoro-phenoxy]butanoic acid], for which the EC50 was less than 200 nM. Regarding `CCCNc1ccccc1-c1cc(F)c(OCCCC(=O)O)c(F)c1` [Example 81, 4-[2,6-difluoro-4-[2-(propylamino)phenyl]phenoxy]butanoic acid], the EC50 was less than 200 nM.

Regarding `O=C(O)CCCOc1c(F)cc(-c2ccccc2NCC2CC2)cc1F` [Example 82, 4-[4-[2-(cyclopropylmethylamino)phenyl]-2,6-difluoro-phenoxy]butanoic acid], the EC50 was less than 200 nM. Still for that read-out and setting: the value for `O=C(O)CCCOc1ccc(-c2ccccc2NCC2CC2)cc1` [Example 85, 4-[4-[2-(cyclopropylmethylamino)phenyl]phenoxy]butanoic acid] was 200 to 2000 nM; that for `CCCNc1ccccc1-c1ccc(OCCCC(=O)O)cc1` [Example 86, 4-[4-[2-(propylamino)phenyl]phenoxy]butanoic acid] was 200 to 2000 nM. With `CC(C)Nc1ccccc1-c1ccc(OCCCC(=O)O)cc1` [Example 87, 4-[4-[2-(isopropylamino)phenyl]phenoxy]butanoic acid], the concentration for a half-maximal effect (EC50) was in the range of 200 to 2000 nM.

As to `O=C(O)CCCOc1ccc(-c2ccccc2NC2CCC2)cc1` [Example 88, 4-[4-[2-(cyclobutylamino)phenyl]phenoxy]butanoic acid], the EC50 lay within 200 to 2000 nM. In the case of `O=C(O)CCCOc1c(F)cc(-c2ccccc2NC2CCC2)cc1F` [Example 89, 4-[4-[2-(cyclobutylamino)phenyl]-2,6-difluoro-phenoxy]butanoic acid], the EC50 is less than 200 nM.

In the case of `O=C(O)CCCOc1c(F)cc(-c2cccc(NCC3CC3)c2)cc1F` [Example 90, 4-[4-[3-(cyclopropylmethylamino)phenyl]-2,6-difluoro-phenoxy]butanoic acid], the EC50 was less than 200 nM. The same measure, in the same setting: to `CC(C)Nc1cccc(-c2cc(F)c(OCCCC(=O)O)c(F)c2)c1` [Example 91, 4-[2,6-difluoro-4-[3-(isopropylamino)phenyl]phenoxy]butanoic acid] belongs less than 200 nM.

For `O=C(O)CCCOc1c(F)cc(-c2cccc(N3CCCC3)c2)cc1F` [Example 92, 4-[2,6-difluoro-4-(3-pyrrolidin-1-ylphenyl)phenoxy]butanoic acid], the EC50 is less than 200 nM.

Take `CCCNc1cccc(-c2cc(F)c(OCCCC(=O)O)c(F)c2)c1` [Example 94, 4-[2,6-difluoro-4-[3-(propylamino)phenyl]phenoxy]butanoic acid]: the EC50 is 200 to 2000 nM.

Take `O=C(O)CCCOc1c(F)cc(-c2cc(Cl)ccc2NC2CCCC2)cc1F` [Example 95, 4-[4-[5-chloro-2-(cyclopentylamino)phenyl]-2,6-difluoro-phenoxy]butanoic acid]: the EC50 lay in the range of 200 to 2000 nM.

Consider `O=C(O)CCCOc1c(F)cc(-c2cc(F)ccc2NC2CCCC2)cc1F` [Example 96, 4-[4-[2-(cyclopentylamino)-5-fluoro-phenyl]-2,6-difluoro-phenoxy]butanoic acid], for which the EC50 is less than 200 nM. Turning to `O=C(O)CCCOc1c(F)cc(-c2cccc(C3CCCC3)c2)cc1F` [Example 97, 4-[4-(3-cyclopentylphenyl)-2,6-difluoro-phenoxy]butanoic acid], the EC50 is less than 200 nM. Take `O=C(O)CCCOc1c(F)cc(-c2cccc(CC3CCCC3)c2)cc1F` [Example 98, 4-[4-[3-(cyclopentylmethyl)phenyl]-2,6-difluoro-phenoxy]butanoic acid]: the EC50 was in the range of 200 to 2000 nM. Still for that read-out and setting: to `O=C(O)CCCOc1c(F)cc(-c2ccccc2CC2CCCC2)cc1F` [Example 99, 4-[4-[2-(cyclopentylmethyl)phenyl]-2,6-difluoro-phenoxy]butanoic acid] belongs less than 200 nM; to `O=C(O)CCCOc1c(F)cc(-c2cccc(CC3CCCC3)n2)cc1F` [Example 100, 4-[4-[6-(cyclopentylmethyl)-2-pyridyl]-2,6-difluoro-phenoxy]butanoic acid], less than 200 nM; to `O=C(O)CCCOc1c(F)cc(-c2ccccc2CC2CCC2)cc1F` [Example 101, 4-[4-[2-(cyclobutylmethyl)phenyl]-2,6-difluoro-phenoxy]butanoic acid], less than 200 nM. For `O=C(O)CCCOc1c(F)cc(-c2cccc(CC3CCC3)c2)cc1F` [Example 102, 4-[4-[3-(cyclobutylmethyl)phenyl]-2,6-difluoro-phenoxy]butanoic acid], the EC50 was less than 200 nM. Consider `O=C(O)CCCOc1c(F)cc(-c2cccc(CC3CCC3)n2)cc1F` [Example 103, 4-[4-[6-(cyclobutylmethyl)-2-pyridyl]-2,6-difluoro-phenoxy]butanoic acid], for which the EC50 was less than 200 nM. Consider `O=C(O)CCCOc1c(F)cc(-c2ccccc2C2CCCC2)cc1F` [Example 104, 4-[4-(2-cyclopentylphenyl)-2,6-difluoro-phenoxy]butanoic acid], for which the EC50 is less than 200 nM.

For `O=C(O)CCCOc1c(F)cc(-c2cccc(C3CCCC3)n2)cc1F` [Example 105, 4-[4-(6-cyclopentyl-2-pyridyl)-2,6-difluoro-phenoxy]butanoic acid], the EC50 is less than 200 nM. In the case of `CC(C)Cc1ncccc1-c1cc(F)c(OCCCC(=O)O)c(F)c1` [Example 106, 4-[2,6-difluoro-4-(2-isobutyl-3-pyridyl)phenoxy]butanoic acid], the EC50 was in the range of 2000 to 20000 nM. As to `O=C(O)CCCOc1c(F)cc(-c2cccnc2C2CCCC2)cc1F` [Example 107, 4-[4-(2-cyclopentyl-3-pyridyl)-2,6-difluoro-phenoxy]butanoic acid], the EC50 lay within 200 to 2000 nM. For `O=C(O)CCCOc1c(F)cc(-c2cccnc2CC2CCCC2)cc1F` [Example 108, 4-[4-[2-(cyclopentylmethyl)-3-pyridyl]-2,6-difluoro-phenoxy]butanoic acid], the EC50 was less than 200 nM. `O=C(O)CCCOc1c(F)cc(-c2cccnc2-n2cccc2)cc1F` [Example 109, 4-[2,6-difluoro-4-(2-pyrrol-1-yl-3-pyridyl)phenoxy]butanoic acid]: the EC50 fell in the range of 200 to 2000 nM. Turning to `Cc1cnn(-c2ncccc2-c2cc(F)c(OCCCC(=O)O)c(F)c2)c1` [Example 110, 4-[2,6-difluoro-4-[2-(4-methylpyrazol-1-yl)-3-pyridyl]phenoxy]butanoic acid], the EC50 was greater than 20000 nM. Same read-out and setting: to `O=C(O)CCCOc1c(F)cc(-c2cccnc2N2CCOCC2)cc1F` [Example 111, 4-[2,6-difluoro-4-(2-morpholino-3-pyridyl)phenoxy]butanoic acid] belongs greater than 20000 nM. Still for that read-out and setting: to `O=C(O)CCCOc1c(F)cc(-c2cccnc2NCC2CCOCC2)cc1F` [Example 112, 4-[2,6-difluoro-4-[2-(tetrahydropyran-4-ylmethylamino)-3-pyridyl]phenoxy]butanoic acid] belongs greater than 20000 nM; to `C[C@@H](CCC(=O)O)Oc1c(F)cc(-c2cccnc2SC2CCC2)cc1F` [Example 114, (4S)-4-[4-(2-cyclobutylsulfanyl-3-pyridyl)-2,6-difluoro-phenoxy]pentanoic acid], less than 200 nM; to `C[C@H](CCC(=O)O)Oc1c(F)cc(-c2cccc(OC3CCC3)c2)cc1F` [Example 116, (4R)-4-[4-[3-(cyclobutoxy)phenyl]-2,6-difluoro-phenoxy]pentanoic acid], less than 200 nM.
